Measured values published in PMC4901392 (Cell host & microbe, 2016).

Legend:
ZigA = details: read-out: apparent Km; Zn-bound ZigA (2 µM), 2 mM MgCl2, 150 mM NaCl, 20 mM Tris-HCl pH 8.0
[1] = molecular target: ZigA (Zur-induced GTPase A) (A. baumannii); assay: SEC

## Nc1nc2c(ncn2[C@@H]2O[C@H](COP(=O)(O)OP(=O)(O)OP(=O)(O)O)[C@@H](O)[C@H]2O)c(=O)[nH]1 [GTP]
ZigA
  Km: 150 µM

## ZigA (Zur-induced GTPase A) (enzyme)
[1]
  stoichiometry N: 2
